Results from PubChem BioAssay AID2060903 (Molecular Pharmacology Branch, DTP, NCI, 2025).

System: 377384-186-R-J1-PDC complex spheroid viability
Experiment: Anticancer human tumor 377384-186-R-J1-PDC patient-derived pancreatic carcinoma cell line growth inhibition [RAS]
Settings: for viability, T/C: stronger effect = lower value; active = viability on the fitted dose curve at most 10% of control; inactive = the rest
Summary of the method: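 Multi-cell-type spheroids: tumor cells plus HUVEC endothelial cells and mesenchymal stem cells. RAS-pathway inhibitors were combined with targeted agents, each dosed in half-log steps down from clinical Cmax, or from 10 microM when Cmax was unknown.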
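Note: spheroids exposed to compounds for seven days before readout.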

CCc1c2c(nc3ccc(O)cc13)-c1cc3c(c(=O)n1C2)COC(=O)[C@]3(O)CC + CCn1c(-c2cc(N3CCN(C)CC3)cnc2C(C)OC)c2c3cc(ccc31)-c1csc(n1)CC(NC(=O)C1CC1C)C(=O)N1CCCC(N1)C(=O)OCC(C)(C)C2
inactive: viability, T/C (second compound 0.000949 µM, first compound 0.000949 µM) 33.1% | viability, T/C (second compound 0.000949 µM, first compound 0.003 µM) 21.3% | viability, T/C (second compound 0.000949 µM, first compound 0.00949 µM) 10.2% | viability, T/C (second compound 0.003 µM, first compound 0.000949 µM) 20.8%
< 0.949 nM: IC50 (curve of first compound, second compound 0.000949 µM) | IC50 (curve of first compound, second compound 0.003 µM) | IC50 (curve of first compound, second compound 0.00949 µM) | IC50 (curve of first compound, second compound 0.03 µM) | IC50 (curve of first compound, second compound 0.0949 µM) | IC50 (curve of first compound, second compound 0.3 µM)
active: viability, T/C (second compound 0.000949 µM, first compound 0.03 µM) 5.07% | viability, T/C (second compound 0.000949 µM, first compound 0.0949 µM) 2.53% | viability, T/C (second compound 0.000949 µM, first compound 0.3 µM) 1.79% | viability, T/C (second compound 0.003 µM, first compound 0.003 µM) 7.71% | viability, T/C (second compound 0.003 µM, first compound 0.00949 µM) 4.82% | viability, T/C (second compound 0.003 µM, first compound 0.03 µM) 3.05% | viability, T/C (second compound 0.003 µM, first compound 0.0949 µM) 2.03% | viability, T/C (second compound 0.003 µM, first compound 0.3 µM) 1.92% | viability, T/C (second compound 0.00949 µM, first compound 0.000949 µM) 4.34% | viability, T/C (second compound 0.00949 µM, first compound 0.003 µM) 3.24% | viability, T/C (second compound 0.00949 µM, first compound 0.00949 µM) 2.6% | viability, T/C (second compound 0.00949 µM, first compound 0.03 µM) 2.11% | viability, T/C (second compound 0.00949 µM, first compound 0.0949 µM) 2.15% | viability, T/C (second compound 0.00949 µM, first compound 0.3 µM) 1.25% | viability, T/C (second compound 0.03 µM, first compound 0.000949 µM) 2.43% | viability, T/C (second compound 0.03 µM, first compound 0.003 µM) 2.09% | viability, T/C (second compound 0.03 µM, first compound 0.00949 µM) 2.04% | viability, T/C (second compound 0.03 µM, first compound 0.03 µM) 2.06% | viability, T/C (second compound 0.03 µM, first compound 0.0949 µM) 1.98% | viability, T/C (second compound 0.03 µM, first compound 0.3 µM) 1.26% | viability, T/C (second compound 0.0949 µM, first compound 0.000949 µM) 1.98% | viability, T/C (second compound 0.0949 µM, first compound 0.003 µM) 1.94% | viability, T/C (second compound 0.0949 µM, first compound 0.00949 µM) 1.8% | viability, T/C (second compound 0.0949 µM, first compound 0.03 µM) 1.65% | viability, T/C (second compound 0.0949 µM, first compound 0.0949 µM) 1.4% | viability, T/C (second compound 0.0949 µM, first compound 0.3 µM) 0.95% | viability, T/C (second compound 0.3 µM, first compound 0.000949 µM) 1.39% | viability, T/C (second compound 0.3 µM, first compound 0.003 µM) 1.76% | viability, T/C (second compound 0.3 µM, first compound 0.00949 µM) 1.84% | viability, T/C (second compound 0.3 µM, first compound 0.03 µM) 1.68% | viability, T/C (second compound 0.3 µM, first compound 0.0949 µM) 1.29% | viability, T/C (second compound 0.3 µM, first compound 0.3 µM) 0.71%

Nc1ccn(C2OC(CO)C(O)C2(F)F)c(=O)n1 (stereo unspecified) + C#Cc1c(F)ccc2cc(O)cc(-c3ncc4c(N5CC6CCC(C5)N6)nc(OCC56CCCN5CC(F)C6)nc4c3F)c12
< 3.16 nM: IC50 (curve of first compound, second compound 0.0316 µM) | IC50 (curve of first compound, second compound 0.1 µM) | IC50 (curve of first compound, second compound 0.316 µM) | IC50 (curve of first compound, second compound 1 µM) | IC50 (curve of first compound, second compound 3.16 µM) | IC50 (curve of first compound, second compound 10 µM)
inactive: viability, T/C (second compound 0.0316 µM, first compound 0.00316 µM) 18.7% | viability, T/C (second compound 0.0316 µM, first compound 0.01 µM) 10.9% | viability, T/C (second compound 0.1 µM, first compound 0.00316 µM) 10.6%
active: viability, T/C (second compound 0.0316 µM, first compound 0.0316 µM) 5.1% | viability, T/C (second compound 0.0316 µM, first compound 0.1 µM) 2.32% | viability, T/C (second compound 0.0316 µM, first compound 0.316 µM) 1.53% | viability, T/C (second compound 0.0316 µM, first compound 1 µM) 1.48% | viability, T/C (second compound 0.1 µM, first compound 0.01 µM) 5.99% | viability, T/C (second compound 0.1 µM, first compound 0.0316 µM) 3.67% | viability, T/C (second compound 0.1 µM, first compound 0.1 µM) 2.25% | viability, T/C (second compound 0.1 µM, first compound 0.316 µM) 1.8% | viability, T/C (second compound 0.1 µM, first compound 1 µM) 1.59% | viability, T/C (second compound 0.316 µM, first compound 0.00316 µM) 3.96% | viability, T/C (second compound 0.316 µM, first compound 0.01 µM) 3.01% | viability, T/C (second compound 0.316 µM, first compound 0.0316 µM) 2.14% | viability, T/C (second compound 0.316 µM, first compound 0.1 µM) 1.91% | viability, T/C (second compound 0.316 µM, first compound 0.316 µM) 1.53% | viability, T/C (second compound 0.316 µM, first compound 1 µM) 1.47% | viability, T/C (second compound 1 µM, first compound 0.00316 µM) 2.36% | viability, T/C (second compound 1 µM, first compound 0.01 µM) 2.41% | viability, T/C (second compound 1 µM, first compound 0.0316 µM) 1.7% | viability, T/C (second compound 1 µM, first compound 0.1 µM) 1.46% | viability, T/C (second compound 1 µM, first compound 0.316 µM) 1.44% | viability, T/C (second compound 1 µM, first compound 1 µM) 1.36% | viability, T/C (second compound 3.16 µM, first compound 0.00316 µM) 2.1% | viability, T/C (second compound 3.16 µM, first compound 0.01 µM) 1.41% | viability, T/C (second compound 3.16 µM, first compound 0.0316 µM) 1.83% | viability, T/C (second compound 3.16 µM, first compound 0.1 µM) 1.8% | viability, T/C (second compound 3.16 µM, first compound 0.316 µM) 1.48% | viability, T/C (second compound 3.16 µM, first compound 1 µM) 1.3% | viability, T/C (second compound 10 µM, first compound 0.00316 µM) 1.37% | viability, T/C (second compound 10 µM, first compound 0.01 µM) 1.08% | viability, T/C (second compound 10 µM, first compound 0.0316 µM) 1.21% | viability, T/C (second compound 10 µM, first compound 0.1 µM) 1.3% | viability, T/C (second compound 10 µM, first compound 0.316 µM) 1.62% | viability, T/C (second compound 10 µM, first compound 1 µM) 1.15%

CC1(O)CCCC1n1c(=O)c(C(F)F)cc2cnc(NC3CCN(S(C)(=O)=O)CC3)nc21 (stereo unspecified)
100 nM [middle of 4 runs]: IC50 (curve of compound)
inactive: viability, T/C (compound 0.0316 µM) 77.2% [middle of 4 runs] | viability, T/C (compound 0.1 µM) 50% [middle of 4 runs] | viability, T/C (compound 0.316 µM) 21.1% [middle of 4 runs] | viability, T/C (compound 1 µM) 25.5% [middle of 4 runs] | viability, T/C (compound 3.16 µM) 34.8% [middle of 4 runs] | viability, T/C (compound 10 µM) 6.6% [middle of 4 runs]
